Seven compounds from ChEMBL document CHEMBL4265983, “Discovery and biological evaluation of thiobarbituric derivatives as potent p300/CBP inhibitors” (Bioorg Med Chem, 2018) can be followed below.

In test [1] the target is Histone acetyltransferase p300 (Homo sapiens, UniProt Q09472). Put plainly: Inhibition of p300 (unknown origin) using human histone as substrate measured after 60 mins in presence of [3H]-acetyl-CoA by microbeta counting method.
For test [2], the system named is MV4-11. The test is described as follows: Induction of apoptosis in human MV4-11 cells assessed as apoptotic cells at 6.7 uM after 48 hrs by Annexin V-FITC/propidium iodide staining-based flow cytometric analysis. The format is functional. On the technique in general: Flow cytometry measures light scatter and fluorescence of single cells or particles in a stream.

Test [3] concerns the target T1, CREB-binding protein/Histone acetyltransferase p300 (Homo sapiens) (UniProt Q09472+Q92793). The test is described as follows: Inhibition of P300/CBP in human MV4-11 cells assessed as downregulation of CCNB1 RNA expression at 20 uM after 12 hrs by RNA-seq analysis. The format is cell-based.
The test system of test [4] is MV4-11. The test is described as follows: Induction of apoptosis in human MV4-11 cells up to 20 uM after 48 hrs by Annexin V-FITC/propidium iodide staining-based flow cytometric analysis. The format is functional, cell-based.
Test [5] deals with T1, CREB-binding protein/Histone acetyltransferase p300 (Homo sapiens). Put plainly: Inhibition of P300/CBP acetyl transferase activity in human MV4-11 cells assessed as reduction in acetylated H3K18 levels after 24 hrs in presence of SAHA by Western blot analysis. The format is cell-based. In general terms: In western blotting, separated proteins are transferred to a membrane and probed.

Test [6] shares this target. The test is described as follows: Inhibition of P300/CBP in human MV4-11 cells assessed as upregulation of BAX RNA expression at 20 uM after 12 hrs by RT-PCR analysis. The format is cell-based.
For the next test, the system named is KOPN-8. Put plainly: Antiproliferative activity against human KOPN8 cells after 72 hrs by CellTiter-Glo assay. The conditions noted are these: KOPN-8, 72 h. A general note: In ATP-based viability assays light output follows the ATP content of the culture.
In test [7] the target is T1, CREB-binding protein/Histone acetyltransferase p300 (Homo sapiens). The test is described as follows: Inhibition of P300/CBP in human MV4-11 cells assessed as downregulation of HIF1A RNA expression at 20 uM after 12 hrs by RNA-seq analysis. The format is cell-based.
Test [8] deals with MV4-11. The test is described as follows: Antitumor activity against human MV4-11 cells xenografted in ip dosed nude mouse assessed as increase in apoptotic cells administered every 2 days for 20 days by TUNEL assay. The format is functional, organism-based.
Test [9] deals with T1, CREB-binding protein/Histone acetyltransferase p300 (Homo sapiens). The test is described as follows: Inhibition of P300/CBP in human MV4-11 cells assessed as downregulation of MYC RNA expression at 20 uM after 12 hrs by RT-PCR analysis. The format is cell-based.
For test [10] the target is unchanged. Put plainly: Inhibition of P300/CBP in human MV4-11 cells assessed as change in DEPDC1 mRNA expression at 20 uM after 12 hrs by RNA-seq analysis. The format is cell-based.
The test system of another test is Kasumi 1. The test is described as follows: Antiproliferative activity against human Kasumi-1 cells after 72 hrs by CellTiter-Glo assay. Conditions: Kasumi 1, 72 h.
In the next test the test system is MOLT-4. Put plainly: Antiproliferative activity against human MOLT4 cells after 72 hrs by CellTiter-Glo assay. Conditions: MOLT-4, 72 h.
A further test concerns RS4-11. Put plainly: Antiproliferative activity against human RS4:11 cells after 72 hrs by CellTiter-Glo assay. Conditions: RS4-11, 72 h.
In test [11] the test system is MV4-11. Put plainly: Induction of apoptosis in human MV4-11 cells assessed as increase in cleaved caspase9 levels after 24 hrs by Western blot analysis. The format is functional, cell-based.
Test [12] has as its target T1, CREB-binding protein/Histone acetyltransferase p300 (Homo sapiens). The test is described as follows: Inhibition of P300/CBP in human MV4-11 cells assessed as downregulation of MYC RNA expression at 20 uM after 12 hrs by RNA-seq analysis. The format is cell-based.
For test [13] the target is unchanged. Put plainly: Inhibition of P300/CBP in human MV4-11 cells assessed as upregulation of GADD45B RNA expression at 20 uM after 12 hrs by RT-PCR analysis. The format is cell-based.
The subject of test [14] is MV4-11. Put plainly: Induction of apoptosis in human MV4-11 cells assessed as increase in cleaved caspase3 levels after 24 hrs by Western blot analysis. The format is functional, cell-based.
Test [15] has as its target T1, CREB-binding protein/Histone acetyltransferase p300 (Homo sapiens). The test is described as follows: Inhibition of P300/CBP acetyl transferase activity in human Kasumi-1 cells assessed as reduction in acetylated H3K18 levels after 24 hrs in presence of SAHA by Western blot analysis. The format is cell-based.
The target is the same in test [16]. The test is described as follows: Inhibition of P300/CBP in human MV4-11 cells assessed as downregulation of HIF1A RNA expression at 20 uM after 12 hrs by RT-PCR analysis. The format is cell-based.
Another test has as its system CCRF-CEM. The test is described as follows: Antiproliferative activity against human CEM cells after 72 hrs by CellTiter-Glo assay.
Test [17] has as its target T1, CREB-binding protein/Histone acetyltransferase p300 (Homo sapiens). Put plainly: Inhibition of P300/CBP in human MV4-11 cells assessed as upregulation of SESN2 RNA expression at 20 uM after 12 hrs by RT-PCR analysis. The format is cell-based.
The test system of another test is THP-1. Put plainly: Antiproliferative activity against human THP1 cells after 72 hrs by CellTiter-Glo assay. Conditions: THP-1, 72 h.
For test [18], the target named is T1, CREB-binding protein/Histone acetyltransferase p300 (Homo sapiens). Put plainly: Inhibition of P300/CBP in human MV4-11 cells assessed as downregulation of CCNA2 RNA expression at 20 uM after 12 hrs by RNA-seq analysis. The format is cell-based.
The next test relates to K562. The test is described as follows: Antiproliferative activity against human K562 cells after 72 hrs by CellTiter-Glo assay. Conditions: K562, 72 h.
Another test concerns the target CREB-binding protein (Homo sapiens, UniProt Q92793). Put plainly: Inhibition of CBP (unknown origin) in presence of [3H]-acetyl-CoA.
In another test the test system is MOLT-3. Put plainly: Antiproliferative activity against human MOLT3 cells after 72 hrs by CellTiter-Glo assay. Conditions: MOLT-3, 72 h.
The target of test [19] is T1, CREB-binding protein/Histone acetyltransferase p300 (Homo sapiens). Put plainly: Inhibition of P300/CBP in human MV4-11 cells assessed as downregulation of RRM2B RNA expression at 20 uM after 12 hrs by RT-PCR analysis. The format is cell-based.
Test [20] relates to MV4-11. The test is described as follows: Antitumor activity against human MV4-11 cells xenografted in ip dosed nude mouse assessed as reduction in tumor growth rate administered every 2 days for 20 days. The format is functional, organism-based.
For test [21], the target named is T1, CREB-binding protein/Histone acetyltransferase p300 (Homo sapiens). The test is described as follows: Inhibition of P300/CBP in human MV4-11 cells assessed as upregulation of SESN2 RNA expression at 20 uM after 12 hrs by RNA-seq analysis. The format is cell-based.
The target is the same in test [22]. The test is described as follows: Inhibition of P300/CBP in human MV4-11 cells assessed as change in UHRF1 mRNA expression at 20 uM after 12 hrs by RNA-seq analysis. The format is cell-based.
For test [23] the target is unchanged. The test is described as follows: Inhibition of P300/CBP in human MV4-11 cells assessed as downregulation of CCNB1 RNA expression at 20 uM after 12 hrs by RT-PCR analysis. The format is cell-based.
The next test concerns Jurkat. Put plainly: Antiproliferative activity against human Jurkat cells after 72 hrs by CellTiter-Glo assay.
Test [24] has as its system MV4-11. Put plainly: Antiproliferative activity against human MV4-11 cells after 72 hrs by CellTiter-Glo assay. Conditions: MV4-11, 72 h.
Test [25] concerns MV4-11. The test is described as follows: Antitumor activity against human MV4-11 cells xenografted in nude mouse assessed as reduction in tumor cell proliferation at 25 to 50 mg/kg, ip administered every 2 days for 20 days by KI-67-staining based microscopic analysis. The format is functional, organism-based.
The target of test [26] is T1, CREB-binding protein/Histone acetyltransferase p300 (Homo sapiens). The test is described as follows: Inhibition of P300/CBP in human MV4-11 cells assessed as downregulation of CCNA2 RNA expression at 20 uM after 12 hrs by RT-PCR analysis. The format is cell-based.
For test [27], the system named is MV4-11. The test is described as follows: Cell cycle arrest in human MV4-11 cells assessed as accumulation at G1 phase up to 20 uM after 24 hrs by propidium iodide/RNase staining-based flow cytometric analysis. The format is functional.
For test [28], the system named is MV4-11. Put plainly: Induction of apoptosis in human MV4-11 cells assessed as increase in cleaved PARP levels after 24 hrs by Western blot analysis. The format is functional, cell-based.
Test [29] addresses T1, CREB-binding protein/Histone acetyltransferase p300 (Homo sapiens). The test is described as follows: Inhibition of P300/CBP in human MV4-11 cells assessed as downregulation of RRM2B RNA expression at 20 uM after 12 hrs by RNA-seq analysis. The format is cell-based.
Test [30] shares this target. The test is described as follows: Inhibition of P300/CBP in human MV4-11 cells assessed as upregulation of BAX RNA expression at 20 uM after 12 hrs by RNA-seq analysis. The format is cell-based.
For test [31] the target is unchanged. The test is described as follows: Inhibition of P300/CBP in human MV4-11 cells assessed as upregulation of GADD45B RNA expression at 20 uM after 12 hrs by RNA-seq analysis. The format is cell-based.
The target in test [32] is Histone acetyltransferase KAT5 (Homo sapiens, UniProt Q92993). The test is described as follows: Inhibition of Tip60 (unknown origin).
Test [33] deals with T1, CREB-binding protein/Histone acetyltransferase p300 (Homo sapiens). Put plainly: Inhibition of P300/CBP acetyl transferase activity in human Kasumi-1 cells assessed as reduction in acetylated H3K18 levels at 2.2 to 60 uM after 24 hrs in presence of SAHA by Western blot analysis. The format is cell-based.
Test [34] shares this target. Put plainly: Inhibition of P300/CBP acetyl transferase activity in human MV4-11 cells assessed as reduction in acetylated H3K18 levels at 2.2 to 60 uM after 24 hrs in presence of SAHA by Western blot analysis. The format is cell-based.

pIC50: −log10 of the molar value. The source made the active and inactive calls. The rule behind the calls is not given here.

Chain of Histone acetyltransferase p300 (Q09472 whole entry): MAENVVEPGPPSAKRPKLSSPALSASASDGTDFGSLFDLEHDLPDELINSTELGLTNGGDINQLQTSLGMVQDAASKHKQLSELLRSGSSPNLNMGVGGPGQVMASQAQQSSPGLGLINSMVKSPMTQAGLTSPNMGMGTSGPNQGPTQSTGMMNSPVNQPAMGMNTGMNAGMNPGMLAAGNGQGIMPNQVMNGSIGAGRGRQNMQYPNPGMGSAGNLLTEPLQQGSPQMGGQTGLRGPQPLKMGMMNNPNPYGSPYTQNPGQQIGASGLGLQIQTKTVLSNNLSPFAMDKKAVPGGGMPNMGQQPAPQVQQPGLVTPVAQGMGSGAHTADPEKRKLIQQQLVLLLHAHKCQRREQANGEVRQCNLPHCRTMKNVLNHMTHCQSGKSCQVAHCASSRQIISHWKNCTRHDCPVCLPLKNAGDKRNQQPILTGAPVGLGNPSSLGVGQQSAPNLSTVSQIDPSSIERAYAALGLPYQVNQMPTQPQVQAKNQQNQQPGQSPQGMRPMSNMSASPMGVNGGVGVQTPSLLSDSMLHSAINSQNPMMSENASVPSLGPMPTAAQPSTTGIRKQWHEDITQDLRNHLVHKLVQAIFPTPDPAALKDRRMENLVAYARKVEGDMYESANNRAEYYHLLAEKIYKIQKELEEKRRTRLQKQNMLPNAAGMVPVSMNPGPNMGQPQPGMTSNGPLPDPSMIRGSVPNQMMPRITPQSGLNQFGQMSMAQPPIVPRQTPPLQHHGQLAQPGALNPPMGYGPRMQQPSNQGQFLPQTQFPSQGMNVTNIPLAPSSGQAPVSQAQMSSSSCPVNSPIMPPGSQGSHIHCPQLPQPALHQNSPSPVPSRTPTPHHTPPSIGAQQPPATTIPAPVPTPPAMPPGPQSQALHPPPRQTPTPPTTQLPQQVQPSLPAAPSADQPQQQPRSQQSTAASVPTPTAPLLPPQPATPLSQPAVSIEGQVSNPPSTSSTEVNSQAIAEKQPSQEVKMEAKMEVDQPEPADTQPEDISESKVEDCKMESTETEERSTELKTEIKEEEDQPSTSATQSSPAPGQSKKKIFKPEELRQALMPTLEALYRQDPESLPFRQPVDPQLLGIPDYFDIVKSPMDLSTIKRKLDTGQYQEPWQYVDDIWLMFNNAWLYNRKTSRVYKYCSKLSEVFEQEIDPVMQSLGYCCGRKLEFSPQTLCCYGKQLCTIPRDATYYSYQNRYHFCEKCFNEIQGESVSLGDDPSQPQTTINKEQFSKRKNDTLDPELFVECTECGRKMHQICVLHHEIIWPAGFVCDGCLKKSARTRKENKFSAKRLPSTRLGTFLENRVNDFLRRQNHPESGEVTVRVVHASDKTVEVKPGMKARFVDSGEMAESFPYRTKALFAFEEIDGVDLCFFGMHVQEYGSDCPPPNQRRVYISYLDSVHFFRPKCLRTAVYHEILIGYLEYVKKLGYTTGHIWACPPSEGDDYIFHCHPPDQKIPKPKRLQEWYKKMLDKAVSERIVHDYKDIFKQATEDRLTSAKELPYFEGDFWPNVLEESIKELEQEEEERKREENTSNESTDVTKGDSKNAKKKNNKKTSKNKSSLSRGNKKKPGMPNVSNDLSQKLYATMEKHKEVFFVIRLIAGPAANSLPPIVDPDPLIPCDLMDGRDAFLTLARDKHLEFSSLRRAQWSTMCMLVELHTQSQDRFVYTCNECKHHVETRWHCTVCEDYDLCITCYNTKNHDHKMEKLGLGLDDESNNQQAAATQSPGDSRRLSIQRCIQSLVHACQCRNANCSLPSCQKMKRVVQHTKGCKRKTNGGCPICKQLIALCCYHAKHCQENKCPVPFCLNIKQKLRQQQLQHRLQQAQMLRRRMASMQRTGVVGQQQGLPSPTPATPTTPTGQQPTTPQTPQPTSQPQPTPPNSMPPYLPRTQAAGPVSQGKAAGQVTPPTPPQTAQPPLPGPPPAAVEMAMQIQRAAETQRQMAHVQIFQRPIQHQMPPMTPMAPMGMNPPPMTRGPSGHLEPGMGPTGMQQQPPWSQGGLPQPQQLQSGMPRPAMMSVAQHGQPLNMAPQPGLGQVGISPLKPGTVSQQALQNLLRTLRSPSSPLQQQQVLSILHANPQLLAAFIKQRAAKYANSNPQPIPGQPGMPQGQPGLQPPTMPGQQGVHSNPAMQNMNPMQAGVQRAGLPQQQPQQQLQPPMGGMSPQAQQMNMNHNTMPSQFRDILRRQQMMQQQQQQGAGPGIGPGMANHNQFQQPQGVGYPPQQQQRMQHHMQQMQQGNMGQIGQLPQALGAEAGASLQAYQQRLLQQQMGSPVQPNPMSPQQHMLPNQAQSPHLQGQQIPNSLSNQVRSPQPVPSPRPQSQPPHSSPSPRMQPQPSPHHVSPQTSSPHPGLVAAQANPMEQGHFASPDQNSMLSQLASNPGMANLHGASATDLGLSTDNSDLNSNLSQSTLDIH
T1 sequence (Q09472 whole entry, looked up): as the sequence (Q09472 whole entry) above
T1 sequence (Q92793 whole entry, looked up): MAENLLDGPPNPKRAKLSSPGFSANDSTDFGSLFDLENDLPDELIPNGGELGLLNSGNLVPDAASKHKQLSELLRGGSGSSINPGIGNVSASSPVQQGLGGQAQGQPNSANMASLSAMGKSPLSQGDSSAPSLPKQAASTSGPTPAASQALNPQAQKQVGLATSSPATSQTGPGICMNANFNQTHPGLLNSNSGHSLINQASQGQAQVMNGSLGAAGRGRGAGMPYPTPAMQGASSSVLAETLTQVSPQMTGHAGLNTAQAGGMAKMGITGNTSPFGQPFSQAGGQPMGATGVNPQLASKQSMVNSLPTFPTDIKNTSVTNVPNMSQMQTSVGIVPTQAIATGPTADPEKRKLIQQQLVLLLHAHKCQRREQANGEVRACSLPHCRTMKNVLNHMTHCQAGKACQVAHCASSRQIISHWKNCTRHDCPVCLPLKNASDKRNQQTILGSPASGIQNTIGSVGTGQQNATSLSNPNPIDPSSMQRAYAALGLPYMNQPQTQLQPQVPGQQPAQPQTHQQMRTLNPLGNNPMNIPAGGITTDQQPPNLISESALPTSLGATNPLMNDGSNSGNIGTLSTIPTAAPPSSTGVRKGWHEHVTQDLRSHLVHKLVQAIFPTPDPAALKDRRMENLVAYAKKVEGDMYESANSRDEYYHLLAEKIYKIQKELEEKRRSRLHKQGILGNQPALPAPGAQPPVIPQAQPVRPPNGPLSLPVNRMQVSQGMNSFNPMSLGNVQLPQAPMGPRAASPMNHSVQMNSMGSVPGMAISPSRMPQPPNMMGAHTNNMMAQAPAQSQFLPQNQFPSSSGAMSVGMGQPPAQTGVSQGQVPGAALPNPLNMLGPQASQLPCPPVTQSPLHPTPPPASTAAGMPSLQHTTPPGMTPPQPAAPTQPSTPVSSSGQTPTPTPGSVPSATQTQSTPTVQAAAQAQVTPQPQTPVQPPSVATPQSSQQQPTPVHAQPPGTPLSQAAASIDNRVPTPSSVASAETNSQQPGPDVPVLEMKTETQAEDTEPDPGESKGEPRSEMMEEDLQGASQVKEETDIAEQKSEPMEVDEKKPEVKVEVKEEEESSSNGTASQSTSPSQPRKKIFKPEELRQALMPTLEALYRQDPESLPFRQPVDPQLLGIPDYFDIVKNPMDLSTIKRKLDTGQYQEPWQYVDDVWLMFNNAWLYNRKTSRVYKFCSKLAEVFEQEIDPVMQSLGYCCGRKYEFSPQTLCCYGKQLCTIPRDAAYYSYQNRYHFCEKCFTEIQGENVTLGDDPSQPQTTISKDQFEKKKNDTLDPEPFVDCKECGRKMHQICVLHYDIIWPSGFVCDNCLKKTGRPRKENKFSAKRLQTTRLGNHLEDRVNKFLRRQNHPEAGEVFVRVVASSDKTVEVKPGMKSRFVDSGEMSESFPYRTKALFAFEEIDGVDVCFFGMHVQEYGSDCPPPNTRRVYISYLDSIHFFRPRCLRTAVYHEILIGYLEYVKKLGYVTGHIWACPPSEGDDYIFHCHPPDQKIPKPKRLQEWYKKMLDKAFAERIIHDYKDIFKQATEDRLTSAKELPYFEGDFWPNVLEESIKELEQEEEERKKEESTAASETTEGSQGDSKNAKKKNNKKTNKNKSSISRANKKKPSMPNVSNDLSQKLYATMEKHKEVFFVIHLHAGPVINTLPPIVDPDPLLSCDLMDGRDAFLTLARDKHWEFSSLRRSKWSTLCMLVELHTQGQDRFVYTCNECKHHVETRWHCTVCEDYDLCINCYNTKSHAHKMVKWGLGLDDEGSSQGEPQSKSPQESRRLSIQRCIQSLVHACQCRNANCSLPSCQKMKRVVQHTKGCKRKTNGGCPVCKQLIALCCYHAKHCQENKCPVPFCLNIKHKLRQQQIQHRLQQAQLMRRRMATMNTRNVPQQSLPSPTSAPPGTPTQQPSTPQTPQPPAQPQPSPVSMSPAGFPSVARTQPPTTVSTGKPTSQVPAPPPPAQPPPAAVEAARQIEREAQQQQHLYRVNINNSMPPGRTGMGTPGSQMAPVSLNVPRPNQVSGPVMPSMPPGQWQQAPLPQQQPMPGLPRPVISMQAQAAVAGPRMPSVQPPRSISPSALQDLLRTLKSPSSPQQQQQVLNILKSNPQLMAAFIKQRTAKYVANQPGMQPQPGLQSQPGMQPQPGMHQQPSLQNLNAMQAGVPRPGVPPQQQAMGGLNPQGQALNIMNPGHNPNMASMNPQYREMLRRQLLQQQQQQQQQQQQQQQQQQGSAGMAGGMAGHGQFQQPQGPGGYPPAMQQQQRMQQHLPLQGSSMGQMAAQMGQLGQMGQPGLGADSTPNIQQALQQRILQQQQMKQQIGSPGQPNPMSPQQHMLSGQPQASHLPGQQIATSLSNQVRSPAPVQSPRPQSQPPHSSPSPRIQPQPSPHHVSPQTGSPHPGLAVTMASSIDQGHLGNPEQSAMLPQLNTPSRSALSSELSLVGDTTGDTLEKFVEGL
Chain of CREB-binding protein (Q92793 whole entry): as the sequence (Q92793 whole entry, looked up) above

The pIC50 is −log10 of the IC50, conventionally taken in molar units. Take `CN1C(=O)/C(=C/c2c[nH]c3ccccc23)C(=O)NC1=S`: the pIC50 in test [1] was below 4.30.

Take `Cc1ccc(N2C(=O)/C(=C\C=C\c3ccco3)C(=O)NC2=S)cc1Cl`: the Activity entry with MV4-11 [2] is “>=60%”; in the test with MV4-11 [4], “Dose-dependent effect”; in the test on MV4-11 [8], “Dose-dependent effect”; with MV4-11 [11], “Dose-dependent effect”; in the test with MV4-11 [14], “Dose-dependent effect”; with MV4-11 [27], “Dose-dependent effect”. Also, the Activity entry in the test on MV4-11 [28] was “Dose-dependent effect”. For the same compound, the inhibition result in test [3], in test [6], in test [7], in [9], in [10] and in [12] was “Active” in each case. The inhibition entry in [13], in [16], in test [17], in test [18], in test [19] and in test [21] was “Active” in each case. Moreover, the inhibition entry in test [22], in [23], in test [26], in [29], in test [30] and in [31] was “Active” each time. The inhibition result in test [5] and in test [15] was “Dose-dependent effect” in each case. Besides, the pIC50 with KOPN-8 was 5.23; in the test on Kasumi 1, 5.72; with MOLT-4, 5.46; in the test on RS4-11, 5.33; in the test on CCRF-CEM it was 5.42; with THP-1, 5.52. The pIC50 in the test on K562 was 5.51; on CREB-binding protein it was 5.49; with MOLT-3 it was 5.57; in test [1], 6.15; in the test with Jurkat, 5.66; with MV4-11 [24] it was 5.96. The TGI result with MV4-11 [20] was “Dose-dependent effect”. Besides, the result in the test with MV4-11 [25] was Active.

`CCCCCCCCCCCCCCCc1cccc(O)c1C(=O)O` [ANACARDIC ACID] gave a pIC50 in [32] of 4.19.

For the compound `CN1C(=O)/C(=C/c2ccccc2)C(=O)NC1=S`, the inhibition entry in [33] and in test [34] was “inactive” each time. Moreover, the pIC50 in [1] was 4.35; with MV4-11 [24] it was below 4.00.

Take `Cc1cc(/C=C2\C(=O)NC(=S)N(C)C2=O)c(C)n1C`: the pIC50 in test [1] was 4.85.

Regarding `CN1C(=O)/C(=C/c2ccncc2)C(=O)NC1=S`, the pIC50 in test [1] was below 4.30.

For the compound `CN1C(=O)/C(=C/c2ccc(N3CCOCC3)o2)C(=O)NC1=S`, the pIC50 in test [1] was below 4.30.
